# Numbers after ± are expanded uncertainties.
# Assay: activity coefficient (dimensionless); of the first substance listed, at infinite dilution; xn = mol fraction of the nth substance listed
# Conditions: 298 K; Liquid; Chromatography; x1 = 0
row,activity coefficient,SMILES
1,32 ± 6,c1ccccc1 [benzene] + OCCO
2,42 ± 10,Ic1ccccc1 [iodobenzene] + OCCO
3,32 ± 10,Fc1ccccc1 [fluorobenzene] + OCCO
4,238 ± 51,c1ccc2ccccc2c1 [naphthalene] + OCCO

row,SMILES,activity coefficient
1,Cc1ccccc1 [toluene] + OCCO,93 ± 12
2,Brc1ccccc1 [bromobenzene] + OCCO,45 ± 10
3,Clc1ccccc1 [chlorobenzene] + OCCO,40 ± 8

# From the NIST ThermoML archive (doi:10.1016/j.fluid.2013.06.028)
